Laboratory results reported in the NIST ThermoML archive (doi:10.1021/je700055p).

Assay: relative permittivity at various frequencies (dimensionless); xn = mol fraction of the nth substance listed
Conditions: 101.3 kPa, Liquid, Frequency=1 MHz, Coaxial cylinder capacitor

CC#N [acetonitrile] + O
relative permittivity
Conditions | 288.15 K | 293.15 K | 298.15 K | 303.15 K | 308.15 K | 313.15 K | 318.15 K | 323.15 K | 328.15 K | 333.15 K
x1 = 0.0465 | 78.61 | 76.8 | 74.92 | 73.36 | 71.55 | 70.04 | 68.44 | 66.84 | 65.36 | 63.85
x1 = 0.0988 | 73.85 | 72.05 | 70.49 | 68.85 | 67.33 | 65.9 | 64.34 | 62.99 | 61.47 | 60.07
x1 = 0.158 | 68.68 | 67.21 | 65.57 | 64.22 | 62.78 | 61.26 | 59.91 | 58.6 | 57.29 | 55.97
x1 = 0.226 | 63.44 | 62 | 60.61 | 59.3 | 58.07 | 56.79 | 55.44 | 54.13 | 53.02 | 51.79
x1 = 0.305 | 58.11 | 56.92 | 55.69 | 54.58 | 53.43 | 52.28 | 51.18 | 49.99 | 48.92 | 47.94
x1 = 0.397 | 53.1 | 52.2 | 51.05 | 50.07 | 48.88 | 47.98 | 46.87 | 45.89 | 44.9 | 43.92
x1 = 0.506 | 48.72 | 47.77 | 46.83 | 45.89 | 44.99 | 44.12 | 43.18 | 42.28 | 41.38 | 40.52
x1 = 0.637 | 44.82 | 43.92 | 43.1 | 42.2 | 41.38 | 40.64 | 39.74 | 38.84 | 37.97 | 37.15
x1 = 0.798 | 41.05 | 40.39 | 39.41 | 38.67 | 37.85 | 37.11 | 36.29 | 35.39 | 34.82 | 34.08
x1 = 1 | 37.52 | 36.62 | 35.88 | 35.15 | 34.45 | 33.75 | 33.01 | 32.36 | 31.62 | 31.05
